Where two headings read alike, the source gives them in different places.
Biological target: T1, ACAT 2 (Mus musculus, UniProt O88908)
T1 construct: The source of ACAT 2 enzyme used was a membrane fraction derived from mouse liver microsome; from tissue; host or cells: mouse liver (microsome fraction)
T1 sequence (O88908 1-525): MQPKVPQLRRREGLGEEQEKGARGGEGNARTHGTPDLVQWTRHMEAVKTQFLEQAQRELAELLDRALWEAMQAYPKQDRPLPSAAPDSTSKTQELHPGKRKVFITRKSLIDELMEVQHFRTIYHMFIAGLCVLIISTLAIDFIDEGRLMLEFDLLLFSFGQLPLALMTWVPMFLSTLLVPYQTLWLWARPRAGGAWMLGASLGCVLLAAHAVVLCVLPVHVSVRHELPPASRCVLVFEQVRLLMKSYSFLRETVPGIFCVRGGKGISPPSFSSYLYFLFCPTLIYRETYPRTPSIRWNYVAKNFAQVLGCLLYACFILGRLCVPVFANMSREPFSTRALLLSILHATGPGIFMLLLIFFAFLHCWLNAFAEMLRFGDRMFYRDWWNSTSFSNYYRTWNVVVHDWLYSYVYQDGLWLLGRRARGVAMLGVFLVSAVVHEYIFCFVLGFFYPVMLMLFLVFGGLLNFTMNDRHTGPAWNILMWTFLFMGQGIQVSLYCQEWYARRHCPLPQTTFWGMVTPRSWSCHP
Test: ACAT-inhibiting activity, mouse liver microsome membrane fraction, [14C]oleoyl-CoA
Type: biochemical
Protocol: The source of ACAT 2 enzyme used was a membrane fraction derived from mouse liver microsome. Mouse liver was homogenized in buffer solution A (50 mM Tris-HCl (pH 7.8), 1 mM ethylenediamine tetraacetate, and 1 mM phenylmethanesulfonyl fluoride) using a homogenizer of the Potter type (Tokyo-RIKO). The homogenate was centrifuged at 12000×g, and the supernatant was ultracentrifuged at 100000×g. The sediment was taken as a microsome fraction, and this fraction was adjusted to have a protein concentration of 5 mg/ml using buffer solution A.
The chloroform layer was evaporated to dryness and was used to spot a thin layer chromatography plate (silica gel plate, Merck, 0.5 mm thickness). Elution for separation was carried out using a solvent of hexane/diethyl ether/acetic acid (70:30:1, v/v).

[1] = mouse liver microsome, 5 minutes at 37° C.

Compound | IC50 [1] [nM] | Specific activity: (inhibitory activity of test compound)/(inhibitory activity of pyripyropene A) (relative to pyripyropene A) | Specific activity relative to pyripyropene A (numeric) (relative to pyripyropene A) | IC50 [nM]
CC(=O)OCC1(C)C2C[C@H](OC(=O)CCN3CCCCC3)[C@@]3(C)Oc4cc(-c5cccnc5)oc(=O)c4[C@H](O)C3[C@@]2(C)CC[C@@H]1OC(C)=O (stereo partly drawn) [PRD 095, 7-O-3-(pyperidin-1-yl)propionyl-7-deacetylpyripyropene A] | 100 to 1000 | + (5 > specific activity > 1) |  | 
CCc1ccc(C(=O)O[C@H]2CC3C(C)(COC(C)=O)[C@@H](OC(C)=O)CC[C@]3(C)C3[C@@H](O)c4c(cc(-c5cccnc5)oc4=O)O[C@@]32C)cc1 (stereo partly drawn) [PRD 025, 7-p-ethylbenzoyl-7-deacetylpyripyropene A] |  | ++++ (100 > specific activity > 50) |  | 
CC(=O)OCC1(C)C2C[C@H](OC(=O)C3CCC(C)CC3)[C@@]3(C)Oc4cc(-c5cccnc5)oc(=O)c4[C@H](O)C3[C@@]2(C)CC[C@@H]1OC(C)=O (stereo partly drawn) [PRD 085, 7-O-4-trans-methylcyclohexanecarboxyl-7-deacetylpyripyropene A] | 10 to 100 | + (5 > specific activity > 1) |  | 
CC(=O)OCC1(C)C2C[C@H](OC(=O)c3cc4ccccc4s3)[C@@]3(C)Oc4cc(-c5cccnc5)oc(=O)c4[C@H](O)C3[C@@]2(C)CC[C@@H]1OC(C)=O (stereo partly drawn) [PRD 035, 7-benzo[b]thiophene-2-carboxyl-7-deacetylpyripyropene A] | 100 to 1000 | + (5 > specific activity > 1) |  | 
CC(=O)OCC1(C)C2C[C@H](OC(=O)c3cccc(F)c3)[C@@]3(C)Oc4cc(-c5cccnc5)oc(=O)c4[C@H](O)C3[C@@]2(C)CC[C@@H]1OC(C)=O (stereo partly drawn) [PRD 024, 7-m-fluorobenzoyl-7-deacetylpyripyropene A] | < 10 | +++++ (specific activity > 100) | ≥ 100 | 
C=Cc1cccc(C(=O)O[C@H]2CC3C(C)(COC(C)=O)[C@@H](OC(C)=O)CC[C@]3(C)C3[C@@H](O)c4c(cc(-c5cccnc5)oc4=O)O[C@@]32C)c1 (stereo partly drawn) [PRD 013, 7-m-vinylbenzoyl-7-deacetylpyripyropene A] | < 10 | +++ (50 > specific activity > 10) |  | 
CC(=O)OCC1(C)C2C[C@H](OC(=O)c3cnccn3)[C@@]3(C)Oc4cc(-c5cccnc5)oc(=O)c4[C@H](O)C3[C@@]2(C)CC[C@@H]1OC(C)=O (stereo partly drawn) [PRD 096, 7-O-pyrazinecarboxyl-7-deacetylpyripyropene A] | 100 to 1000 | + (5 > specific activity > 1) |  | 
CC(=O)OCC1(C)C2C[C@H](OC(=O)c3ccc(N)cc3)[C@@]3(C)Oc4cc(-c5cccnc5)oc(=O)c4[C@H](O)C3[C@@]2(C)CC[C@@H]1OC(C)=O (stereo partly drawn) [PRD 032, 7-p-aminobenzoyl-7-deacetylpyripyropene A] | 100 to 1000 | + (5 > specific activity > 1) |  | 
COc1ccccc1C(=O)O[C@H]1CC2C(C)(COC(C)=O)[C@@H](OC(C)=O)CC[C@]2(C)C2[C@@H](O)c3c(cc(-c4cccnc4)oc3=O)O[C@@]21C (stereo partly drawn) [PRD 001, 7-o-methoxybenzoyl-7-deacetylpyripyropene A] | 10 to 100 | + (5 > specific activity > 1) |  | 
CC(=O)OCC1(C)C2C[C@H](OC(=O)c3ccc(I)cc3)[C@@]3(C)Oc4cc(-c5cccnc5)oc(=O)c4[C@H](O)C3[C@@]2(C)CC[C@@H]1OC(C)=O (stereo partly drawn) [PRD 006, 7-p-iodobenzoyl-7-deacetylpyripyropene A] | 10 to 100 | ++ (10 > specific activity > 5) |  | 
CC(=O)OCC1(C)C2C[C@H](OC(=O)c3ccccc3C)[C@@]3(C)Oc4cc(-c5cccnc5)oc(=O)c4[C@H](O)C3[C@@]2(C)CC[C@@H]1OC(C)=O (stereo partly drawn) [PRD 007, 7-o-methylbenzoyl-7-deacetylpyripyropene A] |  | ++++ (100 > specific activity > 50) |  | 
COc1ccc(C(=O)O[C@H]2CC3C4(C)COC(c5ccccc5)O[C@H]4CC[C@]3(C)C3[C@@H](O)c4c(cc(-c5cccnc5)oc4=O)O[C@@]32C)cc1 (stereo partly drawn) [PRD 044, 1,11-O-benzylidene-7-O-p-methoxybenzoyl-1,7,11-trideacetylpyripyropene A] | 10 to 100 | +++ (50 > specific activity > 10) |  | 
COc1ccc(CCC(=O)O[C@H]2CC3C(C)(COC(C)=O)[C@@H](OC(C)=O)CC[C@]3(C)C3[C@@H](O)c4c(cc(-c5cccnc5)oc4=O)O[C@@]32C)cc1 (stereo partly drawn) [PRD 084, 7-O-3-(4-methoxyphenyl)propionyl-7-deacetylpyripyropene A] | 10 to 100 | +++ (50 > specific activity > 10) |  | 
C=Cc1ccc(C(=O)O[C@H]2CC3C(C)(COC(C)=O)[C@@H](OC(C)=O)CC[C@]3(C)C3[C@@H](O)c4c(cc(-c5cccnc5)oc4=O)O[C@@]32C)cc1 (stereo partly drawn) [PRD 014, 7-p-vinylbenzoyl-7-deacetylpyripyropene A] |  | ++ (10 > specific activity > 5) |  | 
COc1ccc(-n2nnnc2S[C@@H]2CC3C(C)(COC(C)=O)[C@@H](OC(C)=O)CC[C@]3(C)C3[C@@H](O)c4c(cc(-c5cccnc5)oc4=O)O[C@@]32C)cc1 (stereo partly drawn) [PRD 066, 7-(R)-{sulfinyl-5-(p-methoxyphenyl)tetrazol-1-yl}-7-(S)-deacetylpyripyropene A] | 100 to 1000 | + (5 > specific activity > 1) |  | 
CC(=O)OCC1(C)C2C[C@H](OC(=O)c3ccc4ccccc4c3)[C@@]3(C)Oc4cc(-c5cccnc5)oc(=O)c4[C@H](O)C3[C@@]2(C)CC[C@@H]1OC(C)=O (stereo partly drawn) [PRD 037, 7-2-naphthoyl-7-deacetylpyripyropene A] | 100 to 1000 | + (5 > specific activity > 1) |  | 
CC(=O)OCC1(C)C2C=C[C@@]3(C)Oc4cc(-c5cccnc5)oc(=O)c4[C@H](O)C3[C@@]2(C)CC[C@@H]1OC(C)=O (stereo partly drawn) [PRD 061, 7,8-olefinpyripyropene A] |  | + (5 > specific activity > 1) |  | 100 to 1000
COc1ccc(C(=O)O[C@H]2CC3C(C)(COC(C)=O)[C@@H](OC(C)=O)CC[C@]3(C)C3[C@@H](O)c4c(cc(-c5cccnc5)oc4=O)O[C@@]32C)cc1 (stereo partly drawn) [PRD 003, 7-p-methoxybenzoyl-7-deacetylpyripyropene A] | < 10 | +++ (50 > specific activity > 10) |  | 
COc1ccc(CCCC(=O)O[C@H]2CC3C(C)(COC(C)=O)[C@@H](OC(C)=O)CC[C@]3(C)C3[C@@H](O)c4c(cc(-c5cccnc5)oc4=O)O[C@@]32C)cc1 (stereo partly drawn) [PRD 103, 7-O-4-(4-methoxyphenyl)butytyl-7-deacetylpyripyropene A] | < 10 | +++ (50 > specific activity > 10) |  | 
